Drawing on patent US7820623B2 (priority 2006, dated 2010), this text covers IC50 for three compounds.

Test [1] relates to thapsigargin-induced IL-2 production in human whole blood. The note with it: read-out: Analogue Activity (IC50) WB/IL-2.
Test [2] has as its system thapsigargin-induced IFN-g production in human whole blood. Format: cell-based. The note with it: read-out: Analogue Activity (IC50) WB/IFNg.

Molecules are shown by their SMILES. Bridge positions count the residues as written; N and C are the ends. Square brackets hold non-standard residues; d marks the D form. Peptide text beside a SMILES is read from it. 1Nal = N[C@@H](Cc1cccc2ccccc12)C(=O)O

Consider `CC[C@H](C)[C@@H]1NC(=O)[C@H](CCCCN)NC(=O)[C@@H](NC(=O)[C@H](CCCCN)NC(=O)[C@@H](NC(=O)[C@H](CC(N)=O)NC(=O)[C@@H](NC(=O)[C@@H](NC(=O)[C@@H](NC(=O)CN)C(C)C)[C@@H](C)CC)[C@@H](C)CC)C(C)C)CSSC[C@@H]2NC(=O)[C@H](CCCCN)NC(=O)CNC(=O)[C@H](Cc3ccccc3)NC(=O)[C@H](CCCNC(=N)N)NC(=O)[C@H](CCSC)NC(=O)CNC(=O)[C@H](C)NC(=O)[C@H](CCCCN)NC(=O)[C@H](CCCCN)NC(=O)[C@@H]3CSSC[C@@H](C(=O)N[C@H](C(=O)N4CCC[C@H]4C(=O)N[C@@H](CCCCN)C(=O)O)[C@@H](C)O)NC(=O)[C@H](Cc4c[nH]cn4)NC(=O)[C@H](CSSC[C@H](NC(=O)[C@H](C)NC(=O)[C@H](CCCNC(=N)N)NC(=O)[C@H](CO)NC1=O)C(=O)N[C@@H](CC(C)C)C(=O)N[C@@H](CCC(=O)O)C(=O)N1CCC[C@H]1C(=O)N3)NC(=O)[C@H](CCCCN)NC(=O)CNC(=O)[C@H](CC(N)=O)NC(=O)[C@H](CCSC)NC2=O` [Q13A] (H-GVIINVKCKISRACLEPCKKAGMRFGKCMNGKCHCTPK-OH; disulfide 8-28, 14-33, 18-35), for which the IC50 was found to be 0.148 nM in test [1] and 0.133 nM in test [2].
For `CC[C@H](C)[C@@H]1NC(=O)[C@H](CCCCN)NC(=O)[C@@H](NC(=O)[C@H](CCCCN)NC(=O)[C@@H](NC(=O)[C@H](CC(N)=O)NC(=O)[C@@H](NC(=O)[C@@H](NC(=O)[C@@H](NC(=O)CN)C(C)C)[C@@H](C)CC)[C@@H](C)CC)C(C)C)CSSC[C@@H]2NC(=O)[C@H](Cc3cccc4ccccc34)NC(=O)CNC(=O)[C@H](Cc3ccccc3)NC(=O)[C@H](CCCNC(=N)N)NC(=O)[C@H](CCSC)NC(=O)CNC(=O)[C@H](C)NC(=O)[C@H](CCCCN)NC(=O)[C@H](CCCCN)NC(=O)[C@@H]3CSSC[C@@H](C(=O)N[C@H](C(=O)N4CCC[C@H]4C(=O)N[C@@H](CCCCN)C(=O)O)[C@@H](C)O)NC(=O)[C@H](Cc4c[nH]cn4)NC(=O)[C@H](CSSC[C@H](NC(=O)[C@H](CCC(N)=O)NC(=O)[C@H](CCCNC(=N)N)NC(=O)[C@H](CO)NC1=O)C(=O)N[C@@H](CC(C)C)C(=O)N[C@@H](CCC(=O)O)C(=O)N1CCC[C@H]1C(=O)N3)NC(=O)[C@H](CCCCN)NC(=O)CNC(=O)[C@H](CC(N)=O)NC(=O)[C@H](CCSC)NC2=O` [K27Nal] (H-GVIINVKCKISRQCLEPCKKAGMRFG[1Nal]CMNGKCHCTPK-OH; disulfide 8-28, 14-33, 18-35) the same measures were 15 nM and 27 nM.
On the same counts, the results for `CC[C@H](C)[C@@H]1NC(=O)[C@H](CCCCN)NC(=O)[C@@H](NC(=O)[C@H](CCCCN)NC(=O)[C@@H](NC(=O)[C@H](CCC(=O)O)NC(=O)[C@@H](NC(=O)[C@@H](NC(=O)[C@@H](NC(=O)CN)C(C)C)[C@@H](C)CC)[C@@H](C)CC)C(C)C)CSSC[C@@H]2NC(=O)[C@H](CCCCN)NC(=O)CNC(=O)[C@H](Cc3ccccc3)NC(=O)[C@H](CCCNC(=N)N)NC(=O)[C@H](CCSC)NC(=O)CNC(=O)[C@H](C)NC(=O)[C@H](CCCCN)NC(=O)[C@H](CCCCN)NC(=O)[C@@H]3CSSC[C@@H](C(=O)N[C@H](C(=O)N4CCC[C@H]4C(=O)N[C@@H](CCCCN)C(=O)O)[C@@H](C)O)NC(=O)[C@H](Cc4c[nH]cn4)NC(=O)[C@H](CSSC[C@H](NC(=O)[C@H](CCC(N)=O)NC(=O)[C@H](CCCNC(=N)N)NC(=O)[C@H](CO)NC1=O)C(=O)N[C@@H](CC(C)C)C(=O)N[C@@H](CCC(=O)O)C(=O)N1CCC[C@H]1C(=O)N3)NC(=O)[C@H](CCCCN)NC(=O)CNC(=O)[C@H](CC(N)=O)NC(=O)[C@H](CCSC)NC2=O` [N5E] (H-GVIIEVKCKISRQCLEPCKKAGMRFGKCMNGKCHCTPK-OH; disulfide 8-28, 14-33, 18-35) are 0.1 nM and 0.065 nM.
